{
  "source": "patent US20120122906A1",
  "about": "“NOVEL SULFONAMIDE DERIVATIVE AND PHARMACEUTICAL PRODUCT CONTAINING SAME” (KOWA COMPANY, LTD., priority 2009, published 2012)",
  "key": {"[1]": {"target": "T1, angiotensin II type 1 receptor (Oryctolagus cuniculus, UniProt P34976)", "T1 construct": "By using a specimen of isolated rabbit blood vessels; from tissue; host or cells: rabbit thoracic aorta ring (New Zealand White, male)", "T1 sequence (P34976 1-359)": "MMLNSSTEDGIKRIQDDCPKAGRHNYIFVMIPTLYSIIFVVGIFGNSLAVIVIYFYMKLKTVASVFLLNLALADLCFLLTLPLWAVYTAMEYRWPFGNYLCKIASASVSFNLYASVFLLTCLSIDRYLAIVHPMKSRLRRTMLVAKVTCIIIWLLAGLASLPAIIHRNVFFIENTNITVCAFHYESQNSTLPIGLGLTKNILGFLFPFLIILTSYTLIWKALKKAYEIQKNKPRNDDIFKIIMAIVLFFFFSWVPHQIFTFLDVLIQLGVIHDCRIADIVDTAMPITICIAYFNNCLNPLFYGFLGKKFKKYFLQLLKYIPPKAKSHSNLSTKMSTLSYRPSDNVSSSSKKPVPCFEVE", "experiment": "Angiotensin II antagonistic activity in isolated rabbit blood vessels (angiotensin II-induced contraction of thoracic aorta ring)", "conditions": "0.1 μM compound, angiotensin II (10 nM)-induced contraction, read-out: Angiotensin II activity inhibition rate (%) at 0.1 μM concentration", "description": "By using a specimen of isolated rabbit blood vessels, antagonistic activity of the compounds of the invention against angiotensin II type 1 receptor was estimated from a dose-response curve of angiotensin II-induced blood vessel contraction. Specifically, the specimen of thoracic aorta ring of a rabbit (New Zealand White: male, 2.4 to 3.0 kg) was suspended in a magnus bath filled with Krebs-Henseleite buffer (composition: 118 mM NaCl, 4.7 mM KCl, 2.55 mM CaCl2, 1.18 mM MgSO4, 1.18 mM KH2PO4, 24.88 mM NaHCO3, and 11.1 mM D-glucose), and angiotensin II (10 nM)-induced contraction was obtained in the presence of the compounds of each example (1 nmol to 10 μmol/L). During the measurement, the inside temperature of the magnus bath was maintained at 37° C. and the bath was continuously ventilated with a sufficient amount of mixed gas (95% O2 and 5% CO2). The angiotensin II-induced contraction was converted into a relative value (%) that is based on the angiotensin II (10 nM)-induced contraction in the absence of the compounds of each example. From the concentration-response curve obtained therefrom, 50% inhibition concentration (IC50 value) was calculated by using SAS Preclinical Package Ver 5.0 (trade name, manufactured by SAS institute Japan Co., Tokyo, Japan), which is a statistical analysis program."}, "human PPARγ2": {"target": "T2, human PPARγ2 (Homo sapiens, UniProt P37231)", "T2 construct": "the amino acids 182 to 505 of human PPARγ2; expressed in transfected cells", "T2 sequence (P37231 182-505)": "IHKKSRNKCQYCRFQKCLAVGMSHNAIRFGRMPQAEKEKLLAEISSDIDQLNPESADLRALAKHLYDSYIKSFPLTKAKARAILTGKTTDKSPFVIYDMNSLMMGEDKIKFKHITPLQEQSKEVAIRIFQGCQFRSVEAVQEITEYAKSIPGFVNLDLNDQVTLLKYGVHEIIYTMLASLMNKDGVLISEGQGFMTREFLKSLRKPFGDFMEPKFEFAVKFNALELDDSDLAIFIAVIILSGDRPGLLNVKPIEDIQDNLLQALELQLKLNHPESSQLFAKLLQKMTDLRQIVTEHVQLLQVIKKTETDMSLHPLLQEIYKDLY", "experiment": "PPARγ activation activity, Gal4-PPARγ2 LBD luciferase transfection assay in COST cells", "format": "cell-based", "conditions": "Gal4-human PPARγ2 LBD luciferase reporter, 16 hours, rosiglitazone = 100%", "description": "The agonistic activity of the compounds of the invention on PPARγ was measured based on the transfection assay using COST cells (DS Pharma Biomedical Co., Ltd., Osaka, Japan), which are the cell line derived from the kidney of the African green monkey. COST cells were cultured under 5% CO2 concentration, and DMEM medium containing 10% fetal bovine serum, glutamic acid, and antibiotics was used as a medium.\nAs an expression vector, a chimera in which DNA binding domain of Gal4, which is a yeast transcription factor, and ligand binding domain of human PPARγ2 are fused, i.e., a fused product between the amino acids 1 to 147 of Gal4 transcription factor and the amino acids 182 to 505 of human PPARγ2, was used. Furthermore, as a reporter vector, a firefly luciferase containing five copies of Gal4 recognition sequence in the promoter region was used. Plasmid transfection to the cells was performed according to a method which uses jetPEI (trade name, manufactured by Funakoshi Co., Ltd., Tokyo, Japan). Furthermore, β-galactosidase expression vector was employed as an internal standard.\nAfter the transfection of the cells, the medium was replaced with a DMEM medium (containing 1% serum) added with the compound, and the cells were further cultured for 16 hours. After that, the luciferase activity and β-galactosidase activity in the cell lysis solution were measured.\nFor the present test, dimethyl sulfoxide (DMSO) was used for dissolution and dilution of the test compounds, and during the cell treatment, the DMSO concentration in DMEM medium (containing 1% serum) was adjusted to 0.1%. As a positive compound, rosiglitazone (trade name, manufactured by ALEXIS Corporation, Switzerland) was used. The luciferase activity (%) of the test compounds (1 to 30 μmol/L) was calculated when the luciferase activity of rosiglitazone (3 to 10 μmol/L) is 100% and the luciferase activity in the absence of the test compound is 0%. The 50% effective concentration of the test compound (EC50, 50% effect concentration) was calculated by using SAS Preclinical Package Ver 5.0 (trade name, manufactured by SAS institute Japan Co., Tokyo, Japan), which is a statistical analysis program.\nUnder the same condition, the PPARγ activation activity of telmisartan, i.e., EC50, was 1 to 5 μM. In addition, it was confirmed that compounds of Examples not shown in Table 2 also have PPARγ activation activity at a concentration of 30 μM."}},
  "data": [
    {"smiles": "CCCCCC(=O)NS(=O)(=O)c1ccccc1-c1ccc(Cc2c(CCCC)nc(C)n(-c3ncc(OCC)cn3)c2=O)cc1", "note": "[Example 7, N-{4′-{[4-butyl-1-(5-ethoxypyrimidin-2-yl)-2-methyl-6-oxo-1,6-dihydropyrimidin-5-yl]methyl}biphenyl-2-ylsulfonyl}hexanamide]", "values": [
      {"measurement": "inhibition at 0.1 µM", "setting": "[1]", "value": 89.3, "unit": "%"},
      {"measurement": "EC50", "setting": "human PPARγ2", "value": 2210, "unit": "nM"}
    ]}
  ]
}
